Experimental data from ChEMBL document CHEMBL4507291 (2021).

What was measured:
[1] = molecular target: T1, Dual specificity protein kinase TTK (Homo sapiens) (UniProt P33981); test: TTK Kinase screen; conditions: Compound concentration 1.0 uM
T1 sequence (whole entry): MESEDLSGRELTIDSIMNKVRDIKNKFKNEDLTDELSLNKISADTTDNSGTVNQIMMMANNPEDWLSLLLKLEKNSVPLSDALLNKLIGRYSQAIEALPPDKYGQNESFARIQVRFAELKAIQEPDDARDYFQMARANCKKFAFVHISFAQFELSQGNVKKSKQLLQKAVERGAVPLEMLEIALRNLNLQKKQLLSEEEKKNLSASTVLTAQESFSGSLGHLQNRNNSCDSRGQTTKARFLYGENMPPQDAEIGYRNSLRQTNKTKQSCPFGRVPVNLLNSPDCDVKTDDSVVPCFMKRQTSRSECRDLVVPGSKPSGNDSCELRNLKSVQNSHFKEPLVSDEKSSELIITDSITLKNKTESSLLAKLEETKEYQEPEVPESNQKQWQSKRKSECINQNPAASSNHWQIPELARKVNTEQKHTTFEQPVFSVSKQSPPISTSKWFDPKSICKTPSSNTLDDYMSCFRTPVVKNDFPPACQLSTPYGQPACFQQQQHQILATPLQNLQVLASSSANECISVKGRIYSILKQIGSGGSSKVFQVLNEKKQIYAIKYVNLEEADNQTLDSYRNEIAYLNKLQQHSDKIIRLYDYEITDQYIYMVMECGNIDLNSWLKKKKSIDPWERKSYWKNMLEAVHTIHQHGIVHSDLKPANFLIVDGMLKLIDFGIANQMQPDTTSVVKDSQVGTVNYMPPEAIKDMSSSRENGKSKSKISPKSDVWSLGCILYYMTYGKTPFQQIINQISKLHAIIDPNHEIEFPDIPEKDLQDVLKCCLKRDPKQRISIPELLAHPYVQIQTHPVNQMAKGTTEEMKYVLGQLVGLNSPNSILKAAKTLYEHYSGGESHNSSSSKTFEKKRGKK

[2] = molecular target: Receptor-interacting serine/threonine-protein kinase 2 (Homo sapiens) (UniProt O43353); test: RIPK2 Kinase screen; conditions: Compound concentration 1.0 uM
Sequence of Receptor-interacting serine/threonine-protein kinase 2 (Homo sapiens) (O43353 whole entry): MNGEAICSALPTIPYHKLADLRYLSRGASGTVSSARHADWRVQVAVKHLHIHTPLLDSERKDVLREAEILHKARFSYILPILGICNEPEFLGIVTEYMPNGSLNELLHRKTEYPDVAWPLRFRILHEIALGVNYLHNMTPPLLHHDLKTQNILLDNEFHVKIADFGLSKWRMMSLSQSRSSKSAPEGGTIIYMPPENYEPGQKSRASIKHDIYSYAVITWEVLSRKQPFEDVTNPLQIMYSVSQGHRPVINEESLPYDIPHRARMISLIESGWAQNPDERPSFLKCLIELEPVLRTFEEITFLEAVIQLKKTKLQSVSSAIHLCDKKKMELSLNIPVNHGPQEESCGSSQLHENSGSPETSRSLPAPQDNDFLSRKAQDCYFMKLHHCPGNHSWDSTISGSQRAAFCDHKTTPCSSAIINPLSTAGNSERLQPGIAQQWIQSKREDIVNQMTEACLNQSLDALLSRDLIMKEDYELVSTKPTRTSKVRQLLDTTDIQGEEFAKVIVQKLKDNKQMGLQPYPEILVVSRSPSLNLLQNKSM

[3] = molecular target: Mitogen-activated protein kinase kinase kinase 8 (Homo sapiens) (UniProt P41279); test: MAP3K8 (COT) Kinase screen; conditions: Compound concentration 1.0 uM
Sequence of Mitogen-activated protein kinase kinase kinase 8 (Homo sapiens) (P41279 whole entry): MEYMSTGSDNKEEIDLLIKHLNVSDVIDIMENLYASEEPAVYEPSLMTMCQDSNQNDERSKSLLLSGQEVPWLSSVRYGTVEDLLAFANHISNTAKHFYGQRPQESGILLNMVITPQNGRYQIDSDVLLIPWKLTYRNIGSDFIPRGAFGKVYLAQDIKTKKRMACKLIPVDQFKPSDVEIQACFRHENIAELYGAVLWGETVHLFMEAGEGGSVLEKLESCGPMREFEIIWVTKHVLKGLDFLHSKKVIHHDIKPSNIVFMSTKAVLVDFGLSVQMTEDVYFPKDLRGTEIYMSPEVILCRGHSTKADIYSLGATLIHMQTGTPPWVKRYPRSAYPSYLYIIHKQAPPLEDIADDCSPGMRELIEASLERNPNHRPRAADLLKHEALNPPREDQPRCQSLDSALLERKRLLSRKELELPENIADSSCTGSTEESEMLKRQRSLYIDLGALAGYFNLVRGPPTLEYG

[4] = molecular target: T2, Alpha-1A adrenergic receptor (Homo sapiens) (UniProt P35348); conditions: Rattus norvegicus; Compound concentration 10.0 uM
T2 sequence (whole entry): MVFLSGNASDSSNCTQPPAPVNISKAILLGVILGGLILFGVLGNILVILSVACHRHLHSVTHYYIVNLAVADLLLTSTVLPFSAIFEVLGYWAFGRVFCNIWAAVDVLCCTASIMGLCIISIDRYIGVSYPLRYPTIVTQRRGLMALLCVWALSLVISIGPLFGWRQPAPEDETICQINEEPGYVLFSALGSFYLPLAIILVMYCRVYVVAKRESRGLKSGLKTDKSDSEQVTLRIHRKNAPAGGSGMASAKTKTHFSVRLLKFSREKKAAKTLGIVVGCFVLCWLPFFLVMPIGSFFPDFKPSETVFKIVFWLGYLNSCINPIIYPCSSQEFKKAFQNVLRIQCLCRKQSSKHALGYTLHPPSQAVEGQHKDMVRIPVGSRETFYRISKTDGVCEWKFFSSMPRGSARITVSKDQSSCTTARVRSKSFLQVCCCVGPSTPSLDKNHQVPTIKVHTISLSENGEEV

[5] = molecular target: T3, Serine/threonine-protein kinase TAO2 (Homo sapiens) (UniProt Q9UL54); test: TAOK2 (TAO1) Kinase screen; conditions: Compound concentration 1.0 uM
T3 sequence (whole entry): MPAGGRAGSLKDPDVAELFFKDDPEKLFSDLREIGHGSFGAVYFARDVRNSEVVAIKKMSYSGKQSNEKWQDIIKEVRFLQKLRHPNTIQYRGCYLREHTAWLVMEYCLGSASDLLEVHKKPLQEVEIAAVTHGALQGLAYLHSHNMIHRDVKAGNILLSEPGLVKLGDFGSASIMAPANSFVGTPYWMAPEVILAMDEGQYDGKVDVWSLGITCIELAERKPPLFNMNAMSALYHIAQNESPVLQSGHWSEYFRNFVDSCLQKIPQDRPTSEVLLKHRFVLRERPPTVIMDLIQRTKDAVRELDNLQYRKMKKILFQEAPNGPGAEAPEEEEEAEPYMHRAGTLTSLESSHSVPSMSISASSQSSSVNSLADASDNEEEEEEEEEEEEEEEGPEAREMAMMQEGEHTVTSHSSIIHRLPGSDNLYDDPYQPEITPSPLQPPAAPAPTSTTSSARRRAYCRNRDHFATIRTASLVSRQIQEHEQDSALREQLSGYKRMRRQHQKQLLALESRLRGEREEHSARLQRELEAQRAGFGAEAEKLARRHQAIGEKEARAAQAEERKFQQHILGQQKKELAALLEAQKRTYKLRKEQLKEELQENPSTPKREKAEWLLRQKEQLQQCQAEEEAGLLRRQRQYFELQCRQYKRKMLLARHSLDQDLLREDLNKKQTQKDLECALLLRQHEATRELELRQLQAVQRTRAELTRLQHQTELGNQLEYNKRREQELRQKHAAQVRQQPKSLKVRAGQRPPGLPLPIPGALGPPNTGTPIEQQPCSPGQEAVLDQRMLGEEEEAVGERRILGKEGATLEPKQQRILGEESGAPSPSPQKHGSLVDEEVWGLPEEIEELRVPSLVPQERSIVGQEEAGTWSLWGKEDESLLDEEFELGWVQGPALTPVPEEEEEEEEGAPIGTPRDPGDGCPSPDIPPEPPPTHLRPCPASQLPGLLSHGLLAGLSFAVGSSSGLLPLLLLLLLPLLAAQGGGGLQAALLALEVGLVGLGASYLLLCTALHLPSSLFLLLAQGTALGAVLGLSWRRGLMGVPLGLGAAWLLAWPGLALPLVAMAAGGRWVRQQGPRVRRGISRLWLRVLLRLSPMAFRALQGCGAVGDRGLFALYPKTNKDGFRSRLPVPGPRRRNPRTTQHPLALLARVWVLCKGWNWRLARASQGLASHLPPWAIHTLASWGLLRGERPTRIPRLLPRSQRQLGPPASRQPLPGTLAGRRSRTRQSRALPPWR

[6] = molecular target: Mitogen-activated protein kinase kinase kinase kinase 5 (Homo sapiens) (UniProt Q9Y4K4); test: MAP4K5 (KHS1) Kinase screen; conditions: Compound concentration 1.0 uM
Sequence of Mitogen-activated protein kinase kinase kinase kinase 5 (Homo sapiens) (Q9Y4K4 whole entry, looked up): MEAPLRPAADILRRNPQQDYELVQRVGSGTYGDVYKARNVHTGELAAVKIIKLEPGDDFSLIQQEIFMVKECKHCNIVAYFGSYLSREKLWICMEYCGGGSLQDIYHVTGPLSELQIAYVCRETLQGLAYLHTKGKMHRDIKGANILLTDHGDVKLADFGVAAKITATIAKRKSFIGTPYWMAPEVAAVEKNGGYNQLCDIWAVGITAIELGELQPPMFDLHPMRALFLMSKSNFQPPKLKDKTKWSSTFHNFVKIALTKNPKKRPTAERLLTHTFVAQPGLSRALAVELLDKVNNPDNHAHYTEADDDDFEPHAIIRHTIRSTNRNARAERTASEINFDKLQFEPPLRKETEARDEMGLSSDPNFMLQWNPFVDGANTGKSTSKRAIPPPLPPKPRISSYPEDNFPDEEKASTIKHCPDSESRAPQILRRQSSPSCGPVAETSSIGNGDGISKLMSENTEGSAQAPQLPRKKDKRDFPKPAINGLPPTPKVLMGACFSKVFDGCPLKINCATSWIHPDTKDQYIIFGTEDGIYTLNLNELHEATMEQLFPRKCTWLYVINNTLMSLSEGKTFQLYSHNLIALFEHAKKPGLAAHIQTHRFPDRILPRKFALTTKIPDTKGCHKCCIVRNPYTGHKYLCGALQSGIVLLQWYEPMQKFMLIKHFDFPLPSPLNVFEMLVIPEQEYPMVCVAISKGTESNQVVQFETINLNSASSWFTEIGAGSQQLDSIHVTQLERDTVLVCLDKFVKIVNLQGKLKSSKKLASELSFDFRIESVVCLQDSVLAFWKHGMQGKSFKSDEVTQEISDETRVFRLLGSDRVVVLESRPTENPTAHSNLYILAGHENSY

[7] = molecular target: SRSF protein kinase 3 (Homo sapiens) (UniProt Q9UPE1); test: STK23 (MSSK1) Kinase screen; conditions: Compound concentration 1.0 uM
Sequence of SRSF protein kinase 3 (Homo sapiens) (Q9UPE1 whole entry): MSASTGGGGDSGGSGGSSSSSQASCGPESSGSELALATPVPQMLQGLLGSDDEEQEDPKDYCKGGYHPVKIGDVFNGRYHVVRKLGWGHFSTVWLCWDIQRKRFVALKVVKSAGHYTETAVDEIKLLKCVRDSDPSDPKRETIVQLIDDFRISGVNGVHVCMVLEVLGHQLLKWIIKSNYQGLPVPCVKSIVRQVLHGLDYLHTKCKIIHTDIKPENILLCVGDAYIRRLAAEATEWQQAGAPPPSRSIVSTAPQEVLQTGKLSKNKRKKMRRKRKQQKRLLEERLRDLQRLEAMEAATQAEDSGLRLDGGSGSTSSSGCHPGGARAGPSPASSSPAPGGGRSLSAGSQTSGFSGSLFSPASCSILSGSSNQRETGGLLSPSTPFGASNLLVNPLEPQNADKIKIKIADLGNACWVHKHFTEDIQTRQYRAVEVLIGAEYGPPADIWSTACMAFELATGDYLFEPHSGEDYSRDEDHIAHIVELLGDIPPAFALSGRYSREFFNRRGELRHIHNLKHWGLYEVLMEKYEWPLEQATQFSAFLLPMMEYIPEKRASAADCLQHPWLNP

[8] = molecular target: Mitogen-activated protein kinase 3 (Homo sapiens) (UniProt P27361); test: Inhibition of Protein Serine/Threonine Kinase, MAPK3 (ERK1) at 10 µM in the Eurofins-Panlabs enzyme assay (Eurofins_assay_171000); conditions: Compound concentration 10.0 uM
Sequence of Mitogen-activated protein kinase 3 (Homo sapiens) (P27361 whole entry): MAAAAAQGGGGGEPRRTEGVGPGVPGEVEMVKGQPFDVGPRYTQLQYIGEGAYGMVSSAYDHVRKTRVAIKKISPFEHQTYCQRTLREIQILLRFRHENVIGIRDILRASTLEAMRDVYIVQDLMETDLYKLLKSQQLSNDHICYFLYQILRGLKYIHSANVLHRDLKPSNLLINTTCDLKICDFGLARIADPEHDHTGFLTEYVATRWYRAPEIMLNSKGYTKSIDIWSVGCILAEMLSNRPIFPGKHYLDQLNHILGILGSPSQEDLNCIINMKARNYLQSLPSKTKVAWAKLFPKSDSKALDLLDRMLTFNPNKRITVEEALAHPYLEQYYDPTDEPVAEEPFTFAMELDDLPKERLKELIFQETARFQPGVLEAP

[9] = molecular target: Beta-3 adrenergic receptor (Homo sapiens) (UniProt P13945); conditions: Compound concentration 10.0 uM
Sequence of Beta-3 adrenergic receptor (Homo sapiens) (P13945 whole entry, looked up): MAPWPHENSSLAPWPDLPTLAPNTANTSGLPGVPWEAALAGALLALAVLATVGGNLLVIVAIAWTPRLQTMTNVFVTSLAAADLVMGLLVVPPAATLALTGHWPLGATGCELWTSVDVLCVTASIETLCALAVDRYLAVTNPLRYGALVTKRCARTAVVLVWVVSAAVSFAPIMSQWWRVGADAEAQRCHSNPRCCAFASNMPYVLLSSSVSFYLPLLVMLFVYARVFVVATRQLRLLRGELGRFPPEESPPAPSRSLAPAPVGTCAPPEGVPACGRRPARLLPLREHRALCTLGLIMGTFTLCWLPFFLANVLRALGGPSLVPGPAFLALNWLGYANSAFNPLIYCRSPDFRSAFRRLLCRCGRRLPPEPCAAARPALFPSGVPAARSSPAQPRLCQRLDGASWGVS

[10] = molecular target: Ephrin type-A receptor 7 (Homo sapiens) (UniProt Q15375); test: EPHA7 Kinase screen; conditions: Compound concentration 1.0 uM
Sequence of Ephrin type-A receptor 7 (Homo sapiens) (Q15375 28-998 limits assumed): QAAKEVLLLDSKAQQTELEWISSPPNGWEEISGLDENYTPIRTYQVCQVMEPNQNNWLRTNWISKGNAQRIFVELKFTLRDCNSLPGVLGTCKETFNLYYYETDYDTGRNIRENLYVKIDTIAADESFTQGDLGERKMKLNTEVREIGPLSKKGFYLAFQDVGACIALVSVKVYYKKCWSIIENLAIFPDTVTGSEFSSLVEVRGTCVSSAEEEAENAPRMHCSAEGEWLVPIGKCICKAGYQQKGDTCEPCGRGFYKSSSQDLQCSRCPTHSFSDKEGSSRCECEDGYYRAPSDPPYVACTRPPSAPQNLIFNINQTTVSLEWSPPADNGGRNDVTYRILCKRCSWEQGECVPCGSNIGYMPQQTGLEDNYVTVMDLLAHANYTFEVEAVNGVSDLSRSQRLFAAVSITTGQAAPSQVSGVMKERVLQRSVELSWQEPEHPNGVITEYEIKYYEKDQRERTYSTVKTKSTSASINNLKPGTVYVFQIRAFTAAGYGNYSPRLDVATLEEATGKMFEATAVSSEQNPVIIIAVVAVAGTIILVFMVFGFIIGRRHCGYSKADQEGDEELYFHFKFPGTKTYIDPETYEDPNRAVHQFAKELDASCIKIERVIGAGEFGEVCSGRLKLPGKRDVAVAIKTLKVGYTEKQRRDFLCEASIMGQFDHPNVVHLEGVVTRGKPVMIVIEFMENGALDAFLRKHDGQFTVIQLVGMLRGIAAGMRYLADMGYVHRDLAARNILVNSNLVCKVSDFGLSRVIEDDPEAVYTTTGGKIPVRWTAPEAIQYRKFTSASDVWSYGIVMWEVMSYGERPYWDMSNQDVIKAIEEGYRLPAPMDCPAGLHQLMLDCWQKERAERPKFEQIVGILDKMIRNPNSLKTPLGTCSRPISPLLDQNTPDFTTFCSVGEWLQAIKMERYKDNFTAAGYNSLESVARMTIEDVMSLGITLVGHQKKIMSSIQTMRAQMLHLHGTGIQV

[11] = molecular target: 5-hydroxytryptamine receptor 7 (Homo sapiens) (UniProt P34969); conditions: Compound concentration 10.0 uM
Sequence of 5-hydroxytryptamine receptor 7 (Homo sapiens) (P34969 whole entry): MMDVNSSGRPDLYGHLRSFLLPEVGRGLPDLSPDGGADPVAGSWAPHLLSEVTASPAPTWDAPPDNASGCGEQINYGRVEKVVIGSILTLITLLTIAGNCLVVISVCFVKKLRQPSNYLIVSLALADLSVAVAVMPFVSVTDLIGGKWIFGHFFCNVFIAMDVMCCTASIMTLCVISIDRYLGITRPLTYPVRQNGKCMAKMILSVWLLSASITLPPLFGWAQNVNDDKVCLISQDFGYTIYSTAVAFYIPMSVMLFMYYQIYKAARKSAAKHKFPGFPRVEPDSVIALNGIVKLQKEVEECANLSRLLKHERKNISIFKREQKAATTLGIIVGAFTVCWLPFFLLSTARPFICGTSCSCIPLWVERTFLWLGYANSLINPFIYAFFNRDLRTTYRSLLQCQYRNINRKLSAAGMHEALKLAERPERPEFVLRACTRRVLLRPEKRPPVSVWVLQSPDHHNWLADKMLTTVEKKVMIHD

Measured: inhibition

C[C@@H]1CN(c2cc(-c3n[nH]c4ccc(OC5(C)CC5)cc34)ncn2)C[C@H](C)O1 [MLi-2]
inactive: [1] 56.5% | [2] -0.0326% | [3] 16.3% | [4] 9% | [5] -2.67% | [6] 3.26% | [7] 11.9% | [8] 33% | [9] 21% | [10] 8.11%

C[C@@H]1CN(c2cc(-c3nn(C)c4ccc(OC5(C)CC5)cc34)ncn2)C[C@H](C)O1 [MLi-2-NC]
inactive: [11] -0.4%
